Laboratory results: patent publication US11014876B2, “Polyamine sulfonamides and uses thereof” (University of Florida Research Foundation, Inc., priority 2015, dated 2021)
One block for each compound: values may come before it.

Columns and labels:
[1] = test system: KG-1 cell lines (human acute myeloid leukemia cells); test: AML cell (KG1) toxicity in AML-BMEC co-culture high-throughput screening assay; format: cell-based; conditions: percent toxicity to KG-1 cells normalized to DMF
Experimental: FIG. 4. Schematic of high throughput screening assay. AML cells are cultured on bone marrow derived endothelial cells. After 24 hours of exposure to compound treatment, the AML cells and endothelial cells are analyzed for viability using flow cytometry for 7-AAD and annexin. The phase contrast micrographs in the bottom portion of this figure are representative of untreated control and drug treated conditions. In the control situation, spindle shaped endothelial cells appear under the round shaped AML cells. In the drug treated conditions, some compounds disrupt the spindle shaped endothelial cells and lead to their detachment and death. […] This is optimal because of the high toxicity to the malignant cells and low toxicity to stromal cells. Stromal cell viability represents safety.
(§1) The values given for percent toxicity to KG-1 cells is normalized to DMF. To compare the average AML-LSC toxicity vs. AML total toxicity, fresh human primary leukemia bone marrow mononuclear cells were treated with single doses of compounds, 2470-23 and 2470-51, at a single time point, and the killing of the AML leukemia stem cell (LSC) population versus the total AML cell population was quantified (FIG. 1). […] Next, AML-LSC toxicity versus T lymphocyte (Jurkat) toxicity was investigated. […] The single-dose treatments of 2470-23 and 2470-51 on normal healthy blood stem cells (sourced from fresh umbilical cord blood) versus AML LSC were also compared.

[2] = test system: AML leukemia stem cell (LSC) population (CD34+CD38-CD123+); test: AML-LSC toxicity vs. AML total toxicity in fresh primary leukemia bone marrow mononuclear cells; format: cell-based, human; conditions: for killing of AML LSC population versus total AML cell population: single dose, single time point, FIG. 1; for depletion of leukemia stem cells: single-dose treatment, FIG. 3
Experimental: FIG. 1. Comparing average AML-LSC toxicity vs. AML total toxicity. Fresh human primary leukemia bone marrow mononuclear cells were treated with single doses of compounds 2470-23 and 2470-51 at a single time point and the killing of the leukemia stem cell (LSC) population (defined as CD34+CD38-CD123+) was quantified versus the total AML cell population.
as §1

[3] = test system: lymphoid (CD4+ Jurkat) versus myeloid (AML LSC) leukemia cells; test: AML-LSC toxicity vs. Jurkat toxicity; format: cell-based, human; conditions: single-dose treatment; FIG. 2
Experimental: FIG. 2. Comparison of average AML-LSC toxicity vs. Jurkat toxicity.
as §1

[4] = test system: normal healthy blood stem cells (fresh umbilical cord blood); test: Cord blood stem cell toxicity; format: cell-based, human; conditions: single-dose treatment; FIG. 3
Experimental: FIG. 3. Comparison of average AML-LSC toxicity vs. cord blood stem cell toxicity. The single-dose treatments of 2470-23 and 2470-51 on normal healthy blood stem cells (sourced from fresh umbilical cord blood) and AML LSC were compared.
as §1

[5] = test system: Primary human AML specimens (824, 872, 874); test: Viability of primary human AML specimens; format: cell-based; conditions: 24 hours at 50 ng/mL; P<0.05; FIG. 5A
[6] = test system: bone marrow cells from healthy adults; test: Viability of bone marrow cells from healthy adults; format: cell-based, human; conditions: FIG. 5B
alpha-enolase = target: T1, alpha-enolase (Homo sapiens, UniProt P06733); test: Proteomic target identification (pronase protection, MS/MS); format: binding; conditions: FIG. 7A
T1 construct: endogenous in cells; host or cells: KG-1, primary AML cells (816, LPP4), CD34+ cells; lysates
Experimental: FIG. 6. This schematic illustrates the proteomics work flow in identifying protein targets for the compounds. AML cells (KG-1, AML 1:816, AML 2:LPP4) and health hematopoietic stem/progenitor cells (CD34+) were lysed and then mixed with either vehicle or a compound (e.g., 2470-51). Following compound-protein binding, pronase was used to cleave the proteins. Where the compound bound to proteins, this site was protected from pronase digestion. The peptides were then analyzed via gel-based target identification and label-free mass spectrometry.

enolase [7] = test: Enolase protein expression in AML cells; format: cell-based, human; conditions: FIG. 8A
Excerpt: (§2) FIG. 8A. Enolase protein expression. […] Thus, enolase correlates with malignant transformation, but is not changed by applying compounds of the present invention. FIG. 8B. Effect of compounds on enolase enzyme activity.

enolase [8] = target: enolase (Homo sapiens, UniProt P06733); test: Enolase enzyme activity; format: biochemical; conditions: FIG. 8B
Excerpt: as §2

primary human AML cells = test: AML engraftment in NRGS mice injected with primary human AML cells; format: in vivo; conditions: 20 mg/kg IP TIW, two-week treatment, FIG. 9
Experimental: FIG. 9. […] Immunocompromised NRGS (NOD.CG-Rag1^tm1MomIl2rg^tm1Wjl (CMV-IL3, CSF2, KITLG) 1Eav/J) mice were given sub-lethal irradiation (200 cGy), followed by tail vein injection of primary human AML cells. At the end of four week, the animals were randomized into two-week treatment groups: vehicle-treated (PBS treatment control), cytarabine-treated 100 mg/kg IP TIW (positive treatment control), and 2470-51 20 mg/kg IP TIW. Bone marrows were examined for the presence of human CD45+ (green) and DAPI).

Aqueous solubility = format: physicochemical; conditions: aqueous medium
[9] = Microsomal stability, mouse; format: in vitro ADME; conditions: microsomes, read-out: Microsomal Stability, t1/2
[10] = Microsomal stability, rat; format: in vitro ADME; conditions: microsomes, read-out: Microsomal Stability, t1/2
[11] = Microsomal stability, human; format: in vitro ADME; conditions: microsomes, read-out: Microsomal Stability, t1/2
Human plasma half-life = format: in vitro ADME
CYP450 2C9 = CYP450 2C9 (Homo sapiens, UniProt P11712); test: CYP450 inhibition 2C9; format: in vitro ADME
CYP450 2D6 = CYP450 2D6 (Homo sapiens, UniProt P10635); test: CYP450 inhibition 2D6; format: in vitro ADME
CYP450 3A4 = CYP450 3A4 (Homo sapiens, UniProt P08684); test: CYP450 inhibition 3A4; format: in vitro ADME
Plasma protein binding = format: in vitro ADME
PAMPA = format: in vitro ADME

Chain of CYP450 3A4 (P08684 whole entry): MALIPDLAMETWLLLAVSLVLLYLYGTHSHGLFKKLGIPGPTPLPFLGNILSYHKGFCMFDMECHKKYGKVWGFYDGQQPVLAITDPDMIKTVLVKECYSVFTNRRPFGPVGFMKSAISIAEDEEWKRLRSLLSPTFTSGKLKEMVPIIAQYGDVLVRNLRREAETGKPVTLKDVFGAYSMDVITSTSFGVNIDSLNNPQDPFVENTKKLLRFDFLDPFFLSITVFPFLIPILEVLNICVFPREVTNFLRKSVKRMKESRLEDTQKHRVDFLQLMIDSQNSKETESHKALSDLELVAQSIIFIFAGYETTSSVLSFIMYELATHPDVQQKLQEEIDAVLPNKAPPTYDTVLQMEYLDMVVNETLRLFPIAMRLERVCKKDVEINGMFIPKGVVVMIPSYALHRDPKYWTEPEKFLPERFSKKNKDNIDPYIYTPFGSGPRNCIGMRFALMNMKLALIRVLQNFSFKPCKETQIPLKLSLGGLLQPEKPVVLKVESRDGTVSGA
Chain of CYP450 2C9 (P11712 whole entry): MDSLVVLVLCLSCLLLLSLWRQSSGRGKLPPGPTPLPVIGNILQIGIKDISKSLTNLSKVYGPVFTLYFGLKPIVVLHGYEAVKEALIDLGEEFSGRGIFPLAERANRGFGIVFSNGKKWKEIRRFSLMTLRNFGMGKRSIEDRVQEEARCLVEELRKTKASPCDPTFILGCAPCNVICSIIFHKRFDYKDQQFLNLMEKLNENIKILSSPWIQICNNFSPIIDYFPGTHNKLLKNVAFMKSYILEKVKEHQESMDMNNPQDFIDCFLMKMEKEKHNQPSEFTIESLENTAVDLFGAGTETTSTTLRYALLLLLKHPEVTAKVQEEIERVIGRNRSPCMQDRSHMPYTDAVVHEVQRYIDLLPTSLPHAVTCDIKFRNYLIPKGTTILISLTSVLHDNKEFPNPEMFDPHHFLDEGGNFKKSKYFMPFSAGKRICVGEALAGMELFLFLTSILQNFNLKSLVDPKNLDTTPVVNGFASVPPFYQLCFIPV
Chain of enolase (Homo sapiens, UniProt P06733) (P06733 whole entry): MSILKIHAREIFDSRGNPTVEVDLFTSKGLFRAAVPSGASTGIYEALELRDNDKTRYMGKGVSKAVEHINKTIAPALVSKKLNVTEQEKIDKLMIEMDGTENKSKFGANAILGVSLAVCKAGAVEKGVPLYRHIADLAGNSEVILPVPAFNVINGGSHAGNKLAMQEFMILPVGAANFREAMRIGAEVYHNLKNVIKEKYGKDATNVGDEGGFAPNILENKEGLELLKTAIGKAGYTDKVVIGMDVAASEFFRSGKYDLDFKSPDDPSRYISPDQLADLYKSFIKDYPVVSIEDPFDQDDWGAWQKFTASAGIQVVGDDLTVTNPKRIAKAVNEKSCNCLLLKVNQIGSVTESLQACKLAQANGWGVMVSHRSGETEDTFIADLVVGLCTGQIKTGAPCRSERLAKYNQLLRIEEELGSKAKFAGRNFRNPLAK
T1 sequence (P06733 whole entry): as above
Chain of CYP450 2D6 (P10635 whole entry): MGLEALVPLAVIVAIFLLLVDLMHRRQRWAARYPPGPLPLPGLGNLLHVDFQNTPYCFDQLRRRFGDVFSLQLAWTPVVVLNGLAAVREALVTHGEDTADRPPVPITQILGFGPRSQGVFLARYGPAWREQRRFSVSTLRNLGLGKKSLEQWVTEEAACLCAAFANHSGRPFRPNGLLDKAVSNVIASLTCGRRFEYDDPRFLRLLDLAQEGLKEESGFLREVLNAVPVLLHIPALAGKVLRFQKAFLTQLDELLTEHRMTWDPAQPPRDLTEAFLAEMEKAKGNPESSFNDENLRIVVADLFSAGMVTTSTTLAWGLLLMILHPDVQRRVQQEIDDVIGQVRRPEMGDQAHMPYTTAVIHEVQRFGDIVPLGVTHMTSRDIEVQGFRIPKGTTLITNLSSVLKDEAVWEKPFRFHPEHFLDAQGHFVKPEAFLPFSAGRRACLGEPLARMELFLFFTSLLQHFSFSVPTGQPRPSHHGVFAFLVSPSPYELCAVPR

Compound: CC(C)[C@@H](CN)NC[C@H](C)NS(=O)(=O)c1ccc(C(C)(C)C)cc1 [Compound 2470-15]
KG1 toxicity (50 μg/mL) [1]: 38.4%

Compound: CC(C)[C@@H](CN)NC[C@@H](NS(=O)(=O)c1ccc(I)cc1)C(C)C [Compound 2470-23]
KG1 toxicity (50 μg/mL) [1]: 45.9%
killing of AML LSC population versus total AML cell population [2]: selectively kills the AML LSC fraction
depletion of leukemia stem cells [2]: do deplete the leukemia stem cells
AML-LSC toxicity vs. Jurkat toxicity [3]: specificity of these compounds for AML
depletion of healthy cord blood stem cells [4]: do not deplete healthy stem cells

Compound: CC(C)C[C@H](CN)NC[C@H](CCO)NS(=O)(=O)c1ccc2ccccc2c1 [Compound 2470-40]
KG1 toxicity (50 μg/mL) [1]: 37.4%

Compound: CC(C)[C@H](CN)NC[C@H](C)NS(=O)(=O)c1ccc2ccccc2c1 [Compound 2470-49]
KG1 toxicity (50 μg/mL) [1]: 46.7%

binding to alpha-enolase peptide (MS/MS) (alpha-enolase): covalently bound
enolase enzymatic activity (enolase [8]): reduced in a dose-dependent fashion
solubility (Aqueous solubility): > 100 µM
half-life [9]: 8 min
half-life [10]: 9 min
half-life [11]: 33 min
half-life (Human plasma half-life): > 200 min
IC50 (CYP450 2C9): > 20 µM
IC50 (CYP450 2D6): 10.8 µM
IC50 (CYP450 3A4): > 20 µM
fraction unbound (Plasma protein binding): 0.195
PAMPA (PAMPA): 1 ×10⁻⁶ cm/s
PAMPA (grade in words) (PAMPA): (moderate)
Compound: CC(C)[C@H](CN)NC[C@H](C)NS(=O)(=O)c1ccc(C(C)(C)C)cc1 [Compound 2470-51]
KG1 toxicity (50 μg/mL) [1]: 93.2%
killing of AML LSC population versus total AML cell population [2]: selectively kills the AML LSC fraction
depletion of leukemia stem cells [2]: do deplete the leukemia stem cells
AML-LSC toxicity vs. Jurkat toxicity [3]: specificity of these compounds for AML
depletion of healthy cord blood stem cells [4]: do not deplete healthy stem cells
AML cell viability compared to vehicle-treated controls [5]: significantly reduced AML cell viability
cell viability of healthy adult bone marrow cells compared to vehicle control [6]: did not reduce cell viability
enolase protein expression relative to vehicle (enolase [7]): did not change protein expression
AML engraftment (human CD45+ in bone marrow) (primary human AML cells): significantly reduced AML engraftment
